Results taken from ChEMBL document CHEMBL6182864, “Design, synthesis and biological evaluation of 3-amino-6-(2-hydroxyphenyl)pyridazin-4-aryl derivatives as SMARCA2/4 degraders” (Eur J Med Chem, 2025).
Activity calls are given as the source filed them. The calls are words filed in the database; no cut-off is given here.

Tests used:
[1] = Down regulation of SMARCA2 level in human MV4-11 cells at 100 nM measured after 6 hrs by mass spectrometric proteomic analysis relative to control; type: functional
MV4-11 [2] = assay: Effect on SMARCA2 mRNA expression in human MV4-11 cells at 1000 nM measured after 24 hrs by RT-qPCR analysis; type: functional, cell-based
MV4-11 [3] = assay: Effect on SMARCA4 mRNA expression in human MV4-11 cells at 1000 nM measured after 24 hrs by RT-qPCR analysis; type: functional, cell-based
MV4-11 [4] = assay: Induction of apoptosis in human MV4-11 cells assessed as viable cells at 100 nM measured after 72 hrs by Annexin-V-FITC/propidium iodide staining based flow cytometry (reference value: 89.49%); type: functional; settings: read-out: Activity
MV4-11 [5] = assay: Induction of apoptosis in human MV4-11 cells assessed as early apoptotic cells at 100 nM measured after 72 hrs by Annexin-V-FITC/propidium iodide staining based flow cytometry (reference value: 9.32%); type: functional
MV4-11 [6] = assay: Induction of apoptosis in human MV4-11 cells assessed as late apoptotic cells at 100 nM measured after 72 hrs by Annexin-V-FITC/propidium iodide staining based flow cytometry (reference value: 1.09%); type: functional
MV4-11 [7] = assay: Induction of apoptosis in human MV4-11 cells assessed as necrotic cells at 100 nM measured after 72 hrs by Annexin-V-FITC/propidium iodide staining based flow cytometry (reference value: 0.1%); type: functional
MOLM-13 [8] = assay: Induction of apoptosis in human MOLM-13 cells assessed as early apoptotic cells at 100 nM measured after 72 hrs by Annexin-V-FITC/propidium iodide staining based flow cytometry (reference value: 5.57%); type: functional
MV4-11 [9] = assay: Induction of apoptosis in human MV4-11 cells assessed as upregulation of cleaved caspase-3 expression measured after 72 hrs by Western blot analysis; type: functional, cell-based; settings: dose 100-1000 nM
MV4-11 [10] = assay: Down regulation of MYC protein expression in human MV4-11 cells at 11.1 to 1000 nM measured after 24 hrs by Western blot analysis; type: functional, cell-based; settings: dose 11.1-1000 nM
MV4-11 [11] = assay: Down regulation of TRAP1 mRNA expression in human MV4-11 cells at 11.1 to 33.3 nM measured after 24 hrs by RT-qPCR analysis; type: functional, cell-based; settings: dose 11.1-33.3 nM
MV4-11 [12] = assay: Down regulation of TRAP1 mRNA expression in human MV4-11 cells at 100 to 1000 nM measured after 24 hrs by RT-qPCR analysis; type: functional, cell-based; settings: dose 100-1000 nM
[13] = Cmax in SPF Sprague-Dawley rat at 1 mg/kg, iv by LC-MS/MS analysis; type: ADME, organism-based; settings: in vivo
[14] = Half life in SPF Sprague-Dawley rat at 1 mg/kg, iv by LC-MS/MS analysis; type: ADME, organism-based; settings: in vivo
[15] = Cmax in SPF Sprague-Dawley rat at 10 mg/kg, po by LC-MS/MS analysis; type: ADME, organism-based; settings: in vivo
[16] = Half life in SPF Sprague-Dawley rat at 10 mg/kg, po by LC-MS/MS analysis; type: ADME, organism-based; settings: in vivo
[17] = Oral bioavailability in SPF Sprague-Dawley rat at 10 mg/kg by LC-MS/MS analysis; type: ADME, organism-based; settings: in vivo
MV4-11 [18] = assay: Induction of apoptosis in human MV4-11 cells assessed as viable cells at 300 nM measured after 72 hrs by Annexin-V-FITC/propidium iodide staining based flow cytometry (reference value: 89.49%); type: functional; settings: read-out: Activity
MV4-11 [19] = assay: Induction of apoptosis in human MV4-11 cells assessed as necrotic cells at 300 nM measured after 72 hrs by Annexin-V-FITC/propidium iodide staining based flow cytometry (reference value: 0.1%); type: functional
MOLM-13 [20] = assay: Induction of apoptosis in human MOLM-13 cells assessed as late apoptotic cells at 300 nM measured after 72 hrs by Annexin-V-FITC/propidium iodide staining based flow cytometry (reference value: 3.87%); type: functional
MV4-11 [21] = assay: Induction of apoptosis in human MV4-11 cells assessed as viable cells at 1000 nM measured after 72 hrs by Annexin-V-FITC/propidium iodide staining based flow cytometry (reference value: 89.49%); type: functional; settings: read-out: Activity
MV4-11 [22] = assay: Induction of apoptosis in human MV4-11 cells assessed as necrotic cells at 1000 nM measured after 72 hrs by Annexin-V-FITC/propidium iodide staining based flow cytometry (reference value: 0.1%); type: functional
MOLM-13 [23] = assay: Induction of apoptosis in human MOLM-13 cells assessed as early apoptotic cells at 1000 nM measured after 72 hrs by Annexin-V-FITC/propidium iodide staining based flow cytometry (reference value: 5.57%); type: functional
MOLM-13 [24] = assay: Induction of apoptosis in human MOLM-13 cells assessed as late apoptotic cells at 1000 nM measured after 72 hrs by Annexin-V-FITC/propidium iodide staining based flow cytometry (reference value: 3.87%); type: functional
MOLM-13 [25] = assay: Induction of apoptosis in human MOLM-13 cells assessed as necrotic cells at 1000 nM measured after 72 hrs by Annexin-V-FITC/propidium iodide staining based flow cytometry (reference value: 0.28%); type: functional
MV4-11 [26] = assay: cells; settings: Homo sapiens, MV4-11, 72 h
MCF7 = assay: cells; settings: Homo sapiens, MCF7, 72 h
HCT-116 = assay: cells; settings: Homo sapiens, HCT-116, 72 h
A549 = assay: cells; settings: Homo sapiens, A549, 72 h

SMILES: Cc1ncsc1-c1ccc([C@H](C)NC(=O)[C@@H]2C[C@@H](O)CN2C(=O)[C@@H](NC(=O)C2(c3ccc(-c4cc(-c5ccccc5O)nnc4N)cc3)CC2)C(C)(C)C)cc1
- Activity [1]: >=50%
- Activity (MV4-11 [2]): Active; Little Effect Mrna Level Observed
- Activity (MV4-11 [3]): Active; Little Effect Mrna Level Observed
- viability at 0.1 µM (MV4-11 [4]): 32.3%
- Activity (MV4-11 [5]): 47.5%
- Activity (MV4-11 [6]): 18.96%
- Activity (MV4-11 [7]): 1.26%
- Activity (MOLM-13 [8]): 38.84%
- Activity (MV4-11 [9]): Dose-dependent-effect
- Activity (MV4-11 [10]): Active
- Activity (MV4-11 [11]): inactive
- Activity (MV4-11 [12]): Active
- Cmax [13]: 1950 ng/mL
- half-life [14]: 1.91 h
- Cmax [15]: 6.41 ng/mL
- half-life [16]: 2.1 h
- F [17]: 0.62%
- viability at 0.3 µM (MV4-11 [18]): 24.4%
- Activity (MV4-11 [19]): 1.1%
- Activity (MOLM-13 [20]): 14.39%
- viability at 1 µM (MV4-11 [21]): 22.1%
- Activity (MV4-11 [22]): 1.67%
- Activity (MOLM-13 [23]): 57.3%
- Activity (MOLM-13 [24]): 16.77%
- Activity (MOLM-13 [25]): 0.24%
- IC50 (MV4-11 [26]): 0.005 µM
- IC50 (MCF7): > 30 µM
- IC50 (HCT-116): > 30 µM
- IC50 (A549): 6.02 µM
